# Experimental data as given in US8927570B2, “1-naphthyl-or 1-dihydroacenaphthenyl-pyrido[B]indoles and uses thereof in treating cancers” (priority 2009, dated 2015).
# Experiments:
# [1] = tested on: MCF-7 breast cancer cell line; test: In vitro antiproliferative activity, MCF-7 breast cancer cell line; assay type: cell-based, human
# Protocol: (§1) Substituted β-carbolines and analog compounds 39 to 57 were tested for antiproliferative activity against HPAC, Mia-PaCa2 and Panc-1 pancreatic cancer cell lines and MCF-7 and MDA-MB-468 breast cancer cell lines. Table 2 lists the IC50 values for the substituted β-carbolines and analogs thereof.
# [2] = tested on: MDA-MB-468 breast cancer cell line; test: In vitro antiproliferative activity, MDA-MB-468 breast cancer cell line; assay type: cell-based, human; details: Table 2
# Protocol: as §1
# [3] = tested on: HPAC pancreatic cancer cell line; test: In vitro antiproliferative activity, HPAC pancreatic cancer cell line; assay type: cell-based
# Protocol: (§2) Substituted β-carboline compounds 4 to 38 were tested for antiproliferative activity against HCT116 colon cancer cells and HPAC, Mia-PaCa2 and Panc-1 pancreatic cancer cell lines. Table 1 lists the IC50 values for the substituted β-carbolines.
# as §1
# [4] = tested on: Panc-1 pancreatic cancer cell line; test: In vitro antiproliferative activity, Panc-1 pancreatic cancer cell line; assay type: cell-based, human
# Protocol: as §1
# [5] = tested on: Mia-PaCa2 pancreatic cancer cell line; test: In vitro antiproliferative activity, Mia-PaCa2 pancreatic cancer cell line; assay type: cell-based
# Protocol: as §2, §1
# [6] = tested on: HCT116 colon cancer cells; test: In vitro antiproliferative activity, HCT116 colon cancer cells; assay type: cell-based; details: Homo sapiens, HCT-116, Table 1
# Protocol: as §2
# [7] = Homo sapiens, MIA PaCa-2, Table 1
# [8] = Homo sapiens, MIA PaCa-2, Table 2
Compound,"IC50 ([3]; Homo sapiens, Table 1) [µM]","IC50 ([4]; Homo sapiens, Table 1) [µM]","IC50 [5, 7] [µM]",IC50 [6] [µM],other results
"1-(1,2-Dihydroacenaphth alen-5-yl)-6-methoxy-9H-pyrido[3,4-b]indole [Compound 47]",–,–,–,–,IC50 ([1]; Table 2): 6.42 µM; IC50 [2]: 4.47 µM; IC50 ([3]; Table 2): 4.79 µM; IC50 ([4]; Table 2): > 50 µM; IC50 ([5]; Table 2): 2.95 µM
"COc1ccc2c(c1)[nH]c1c(-c3cccnc3)nccc12 [Compound 5, 1-Pyridin-3-yl-7-methoxy-9H-β-carboline]",> 50,> 50,44.8,–,–
"COc1ccc2c(c1)[nH]c1c(-c3ccoc3)nccc12 [Compound 8, 1-Furan-3-yl-7-methoxy-9H-β-carboline]",45.1,> 50,38.3,–,–
"COc1ccc2c(c1)[nH]c1c(-c3nccc4ccccc34)nccc12 [Compound 12, 1-Isoquinolin-1-yl-7-methoxy-9H-β-carboline]",34.8,> 50,49.2,–,–
"COc1ccc2[nH]c3c(-c4cccc5nccnc45)nccc3c2c1 [Compound 13, 6-Methoxy-1-quinoxalin-5-yl-9H-β-carboline]",> 50,> 50,> 50,26.1,–
"COc1ccc2c(c1)[nH]c1c(-c3cccc4nccnc34)nccc12 [Compound 14, 7-Methoxy-1-quinoxalin-5-yl-9H-β-carboline]",> 50,> 50,> 50,49.6,–
"COc1ccc2[nH]c3c(-c4cncc5ccccc45)nccc3c2c1 [Compound 15, 1-Isoquinolin-4-yl-6-methoxy-9H-β-carboline]",7.37,10.5,4.7,5.7,–
"COc1ccc2c(c1)[nH]c1c(-c3cncc4ccccc34)nccc12 [Compound 16, 1-Isoquinolin-4-yl-7-methoxy-9H-β-carboline]",44.9,> 50,36.7,33.5,–
"COc1ccc2[nH]c3c(-c4cnc5ccccc5c4)nccc3c2c1 [Compound 17, 6-Methoxy-1-quinolin-3-yl-9H-β-carboline]",21.9,29,17,14.1,–
"COc1ccc2c(c1)[nH]c1c(-c3cnc4ccccc4c3)nccc12 [Compound 18, 7-Methoxy-1-quinolin-3-yl-9H-β-carboline]",14.5,37.2,16.7,13.1,–
"COc1ccc2c(c1)[nH]c1c(-c3cccc4ccccc34)nccc12 [Compound 20, 7-Methoxy-1-naphthalen-1-yl-9H-β-carboline]",25.5,> 50,6.61,3.6,–
"COc1ccc2[nH]c3c(-c4cccc5ncccc45)nccc3c2c1 [Compound 21, 6-Methoxy-1-quinolin-5-yl-9H-β-carboline]",5.83,7.52,2.58,0.9,–
"COc1ccc2c(c1)[nH]c1c(-c3cccc4ncccc34)nccc12 [Compound 22, 7-Methoxy-1-quinolin-5-yl-9H-β-carboline]",> 50,> 50,28.6,12.8,–
"COc1ccc2[nH]c3c(-c4cccc5cnccc45)nccc3c2c1 [Compound 23, 1-Isoquinolin-5-yl-6-methoxy-9H-β-carboline]",15.9,21.2,9.81,9,–
"COc1ccc2c(c1)[nH]c1c(-c3cccc4cnccc34)nccc12 [Compound 24, 1-Isoquinolin-5-yl-7-methoxy-9H-β-carboline]",34.4,> 50,24.1,15.1,–
"COc1ccc2[nH]c3c(-c4ccc5ccccc5c4)nccc3c2c1 [Compound 25, 6-Methoxy-1-naphthalen-2-yl-9H-β-carboline]",5.57,8.4,1.36,0.67,–
"COc1ccc2[nH]c3c(-c4cc5ccccc5c5ccccc45)nccc3c2c1 [Compound 29, 6-Methoxy-1-phenanthren-9-yl-9H-β-carboline]",0.54,18,0.84,0.53,–
"COc1ccc2c(c1)[nH]c1c(-c3cc4ccccc4c4ccccc34)nccc12 [Compound 30, 7-Methoxy-1-phenanthren-9-yl-9H-β-carboline]",5.67,> 50,1.57,0.87,–
"COc1ccc2[nH]c3c(-c4ccccc4)nccc3c2c1 [Compound 31, 6-Methoxy-1-phenyl-9H-β-carboline]",44.8,> 50,37.1,33.5,–
"COc1cccc2c1[nH]c1c(-c3cccc4ccccc34)nccc12 [Compound 39, 8-methoxy-1-(naphthalen-1-yl)-9H-pyrido[3,4-b]indole]",–,–,–,–,"IC50 ([1]; Homo sapiens, MCF7, Table 2): > 10 µM; IC50 ([2]; Homo sapiens): > 10 µM; IC50 ([3]; Homo sapiens, Table 2): 20.5 µM; IC50 ([4]; Homo sapiens, Table 2): 26.5 µM; IC50 [5, 8]: 31.9 µM"
"Oc1ccc2[nH]c3c(-c4cccc5ccccc45)nccc3c2c1 [Compound 40, 1-(naphthalen-1-yl)-9H-pyrido[3,4-b]indol-6-ol]",–,–,–,–,"IC50 ([1]; Homo sapiens, MCF7, Table 2): 34 µM; IC50 ([2]; Homo sapiens): 10.3 µM"
"COc1ccc2[nH]c3c(-c4cccc5ccccc45)ncc(-c4ccccc4)c3c2c1 [Compound 41, 6-methoxy-1-(naphthalen-1-yl)-4-phenyl-9H-pyrido[3,4-b]indole]",–,–,–,–,"IC50 ([1]; Homo sapiens, MCF7, Table 2): > 10 µM; IC50 ([2]; Homo sapiens): > 10 µM; IC50 ([3]; Homo sapiens, Table 2): 7.72 µM; IC50 ([4]; Homo sapiens, Table 2): > 10 µM; IC50 [5, 8]: 3.63 µM"
"CNS(=O)(=O)Cc1ccc2[nH]c3c(-c4cccc5ccccc45)nccc3c2c1 [Compound 42, N-methyl-1-(1-(naphthalen-1-yl)-9H-pyrido[3,4-b]indol-6-yl)methanesulfonamide]",–,–,–,–,"IC50 ([1]; Homo sapiens, MCF7, Table 2): 2.04 µM; IC50 ([2]; Homo sapiens): 1.11 µM; IC50 ([3]; Homo sapiens, Table 2): 3.83 µM; IC50 ([4]; Homo sapiens, Table 2): 6.11 µM; IC50 [5, 8]: 0.58 µM"
"Cc1cccc2[nH]c3c(-c4cccc5ccccc45)nccc3c12 [Compound 43, 5-methyl-1-(naphthalen-1-yl)-9H-pyrido[3,4-b]indole]",–,–,–,–,"IC50 ([1]; Homo sapiens, MCF7, Table 2): 7.83 µM; IC50 ([2]; Homo sapiens): 1.41 µM; IC50 ([3]; Homo sapiens, Table 2): 4.03 µM; IC50 ([4]; Homo sapiens, Table 2): 4.56 µM; IC50 [5, 8]: 1.17 µM"
"COc1ccc2[nH]c3c(-c4cccc5c(F)cccc45)nccc3c2c1 [Compound 44, 1-(5-fluoronaphthalen-1-yl)-6-methoxy-9H-pyrido[3,4-b]indole]",–,–,–,–,"IC50 ([1]; Homo sapiens, MCF7, Table 2): 6.6 µM; IC50 ([2]; Homo sapiens): 1.2 µM; IC50 ([3]; Homo sapiens, Table 2): 2.37 µM; IC50 ([4]; Homo sapiens, Table 2): 2.56 µM; IC50 [5, 8]: 0.33 µM"
"COc1ccc2[nH]c3c(-c4cccc5c(Br)cccc45)nccc3c2c1 [Compound 45, 1-(5-bromonaphthalen-1-yl)-6-methoxy-9H-pyrido[3,4-b]indole]",–,–,–,–,"IC50 ([1]; Homo sapiens, MCF7, Table 2): 6.85 µM; IC50 ([2]; Homo sapiens): 1.77 µM; IC50 ([3]; Homo sapiens, Table 2): 6.18 µM; IC50 ([4]; Homo sapiens, Table 2): 2.92 µM; IC50 [5, 8]: 1.17 µM"

# Continued, in another order:
"IC50 ([3]; Homo sapiens, Table 1) [µM]","IC50 ([4]; Homo sapiens, Table 1) [µM]","IC50 [5, 7] [µM]",IC50 [6] [µM],Compound,other results
20.8,48,21.7,17.1,"COc1ccc2c(c1)[nH]c1c(-c3ccc4ccccc4c3)nccc12 [Compound 26, 7-Methoxy-1-naphthalen-2-yl-9H-β-carboline]",–
6.08,10.5,2.43,2.1,"COc1ccc2[nH]c3c(-c4c5ccccc5cc5ccccc45)nccc3c2c1 [Compound 27, 1-Anthracen-9-yl-6-methoxy-9H-β-carboline]",–
5.47,14.9,3.59,1.7,"COc1ccc2c(c1)[nH]c1c(-c3c4ccccc4cc4ccccc34)nccc12 [Compound 28, 1-Anthracen-9-yl-7-methoxy-9H-β-carboline]",–
34.3,> 50,34.3,31.4,"COc1ccc2c(c1)[nH]c1c(-c3ccccc3)nccc12 [Compound 32, 7-Methoxy-1-phenyl-9H-β-carboline]",–
9.38,19.8,2.23,1.8,"COc1ccc2[nH]c3c(-c4c(C)ccc5ccccc45)nccc3c2c1 [Compound 33, 6-Methoxy-1-(2-methyl-naphthalen-1-yl)-9H-β-carboline]",–
17.6,33.3,20.7,2.43,"COc1ccc2c(c1)[nH]c1c(-c3c(C)ccc4ccccc34)nccc12 [Compound 34, 7-Methoxy-1-(2-methyl-naphthalen-1-yl)-9H-β-carboline]",–
23.1,> 50,47.2,2.22,"COc1ccc2c(-c3nccc4c3[nH]c3ccc(OC)cc34)cccc2c1 [Compound 35, 6-Methoxy-1-(6-methoxy-naphthalen-1-yl)-9H-β-carboline]",–
0.83,0.57,0.51,–,"c1ccc(COc2ccc3[nH]c4c(-c5cccc6ccccc56)nccc4c3c2)cc1 [Compound 36, 6-Benzyloxy-1-naphthalen-1-yl-9H-β-carboline]",–
6.39,> 50,3.54,2.6,"Cc1cccc2c1[nH]c1c(-c3cccc4ccccc34)nccc12 [Compound 37, 8-Methyl-1-naphthalen-1-yl-9H-β-carboline]",–
17,47.4,48.4,3,"COc1ccc2[nH]c3c(-c4ccc(-c5ccccn5)cc4)nccc3c2c1 [Compound 38, 6-Methoxy-1-(4-pyridin-2-yl-phenyl)-9H-β-carboline]",–
